Experimental data as given in EP3024823B1, “INTERCALATING AMINO ACIDS” (priority 2013, dated 2015).
Converted amounts (≈) assume the structure as drawn.

Legend:
PylRS_AF = target: T1, PylRS_AF (Methanosarcina mazei, UniProt Q8PWY1, Y306A/Y384F); assay: PylRS_AF-mediated amber suppression in GFP-Y39TAG (GFP expression in E. coli); type: cell-based; conditions: for efficiency and accuracy of incorporation into peptides: Figure 2, whole cell fluorescence; for GFP expression, SDS PAGE of Ni-NTA-purified GFP / yield of purified GFP-Y39→ncAA / expression of full-length GFP by cellular fluorescence: E. coli; for GFP expression, SDS PAGE of Ni-NTA-purified GFP: pREP-PylRS_AF, pBAD_GFP-Y39TAG; for yield of purified GFP-Y39→ncAA / expression of full-length GFP by cellular fluorescence: PylRS_AF
T1 construct: expressed in transfected cells
T1 sequence (Q8PWY1 whole entry Y306A/Y384F): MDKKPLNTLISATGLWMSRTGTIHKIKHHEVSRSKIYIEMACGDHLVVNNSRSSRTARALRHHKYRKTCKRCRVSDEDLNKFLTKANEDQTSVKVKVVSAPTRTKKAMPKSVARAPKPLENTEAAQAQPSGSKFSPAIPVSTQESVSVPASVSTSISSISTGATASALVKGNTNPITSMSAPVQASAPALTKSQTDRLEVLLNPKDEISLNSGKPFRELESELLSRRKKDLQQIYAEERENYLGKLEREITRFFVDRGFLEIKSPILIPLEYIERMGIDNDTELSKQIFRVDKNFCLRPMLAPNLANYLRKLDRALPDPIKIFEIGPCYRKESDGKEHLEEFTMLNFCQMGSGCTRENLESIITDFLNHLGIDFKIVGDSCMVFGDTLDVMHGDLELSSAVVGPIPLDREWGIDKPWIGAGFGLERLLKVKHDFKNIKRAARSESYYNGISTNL
Excerpt: (§1) Protein Expression and Purification. All proteins were expressed from pBAD vectors and purified using a C-terminal His6 tag. For expression of proteins containing ncAA, E. coli cells were co-transformed with pBAD plasmid containing the target gene with amber codon (pBAD_GFP-39TAG, pBAD_TRX-R74-His6_TAG, pBAD_CmodC or pBAD_TAT, all conferring ampicillin resistance) and a plasmid coding for the respective PylRS mutant and tRNA^Pyl (pEVOL_PylRS_AF, pREP_PylRS_wt, _GF, _AF and PylRS_AF single or double alanine mutants). A single clone was picked and grown in Luria Broth (LB) media supplemented with suited antibiotics at 37 °C and 200 rpm shaking. 0.1 ml of this culture was used to inoculate 5 ml LB supplemented with the same antibiotics and different concentrations of the ncAA. The culture was incubated at 37 °C and 200 rpm shaking until OD600 of ∼0.4 - 0.6 and protein expression was induced with 0.02% (w/v) L-arabinose. The culture was harvested after 4 - 6 h of incubation by centrifugation (10 min, 3320 x g, room temperature). The pellet was lysed with B-Per lysis reagent (Thermo scientific) containing 1x Complete (-EDTA) protease inhibitor cocktail (Roche) and shaking at room temperature at 1400 rpm for 30 min. The suspension was pelleted by centrifugation (5 min, 20817 x g, room temperature) the supernatant was extracted with Ni-NTA agarose slurry (Qiagen) at an imidazole concentration of 10 mM by shaking at room temperature. The beads were washed with 350 µl 4x PBS and or two wash buffers (50 mM NaH2PO4, 300 mM NaCl, pH = 8.0, containing 20 - 50 mM imidazole). Proteins were eluted with elution buffer (50 mM NaH2PO4, 300 mM NaCl, pH = 8.0, containing 500 mM imidazole). For GFP-TAT protein containing ncAA 6, expressions were carried out in BL21 (DE3) gold and purification was conducted as above, but under denaturing conditions (8 M urea). Protein was refolded by stepwise dialysis against 20 mM Tris-HCl, pH = 8.0, 10 % glycerole with decreasing urea concentrations. Purity of the obtained proteins was analyzed by SDS PAGE and staining with Gelcode blue (Thermo Scientific) and quantified using a BCA assay (Pierce, Thermo Scientific). For GFP yield determination based on whole cell fluorescence, cell pellets from 3 ml expressions were washed twice with 3 ml 4x PBS (by centrifugation for 10 min at 3320 x g at room temperature and resuspension) and fluorescence was determined using a Tecan M200 plate reader using and excitation wavelength of 475 nm and an emission wavelength of 510 nm. Fluorescence values were corrected for cell densities based on OD600 - measurements. Generally, expressions were carried out in E. coli Top10 using carbenicillin selection for pEVOL plasmids and tetracyclin selection for pREP plasmids. Wild type thioredoxin and TRX-R74→6 were expressed in E. coli BL21 (DE3) gold cells. Expressed C-terminal fragment of PylRS_AF (aa 188-454) was stored in 10 mM HEPES-Na+, pH = 7.5, 5 mM MgCl2, 300 mM NaCl at -80 °C before use.
Next, the tRNA^Pyl/PylRS pair of Methanosarcina mazei was analyzed for its capability to mediate the selective incorporation of ncAA 3 into proteins in E. coli in response to the amber codon, TAG. E. coli were co-transformed with plasmids pEVOL-PylRS_wt (encoding wild type M. mazei PylRS and tRNA^Pyl) and pBAD_GFP-39TAG (encoding GFP with an amber mutation at position Y39 and a C-terminal His6 tag) and the culture induced with L-arabinose in the presence or absence of 1 mM ncAA 3 or Nε-(tert-butyloxycarbonyl)-L-lysine (Boc-Lys, ncAA 2), which is an efficiently processed substrate of PylRS_wt. However, expression of full-length GFP was only detected for ncAA 2 by cellular fluorescence. […] Among amino acids that constitute the methyl-pyrroline binding pocket of PylRS, Y306 is a main component of the rear part and plays a critical role in discriminating against larger, Nε-carbamate-linked lysine derivatives. […]

PylRS_wt = target: T2, PylRS_wt (Methanosarcina mazei, UniProt Q8PWY1); assay: PylRS_wt-mediated amber suppression in GFP-Y39TAG (GFP expression in E. coli); type: cell-based; conditions: for expression of full-length GFP by cellular fluorescence: pEVOL-PylRS_wt, pBAD_GFP-39TAG, 1 mM ncAA; for GFP expression, SDS PAGE of Ni-NTA-purified GFP: pREP-PylRS_wt, pBAD_GFP-Y39TAG
T2 construct: expressed in transfected cells
T2 sequence (Q8PWY1 whole entry): as the sequence (Q8PWY1 whole entry Y306A/Y384F) above, with A306Y, F384Y counted along it
Excerpt: as §1, with “Protein was refolded by stepwise dialysis against 20 mM Tris-HCl, pH = 8.0, 10 % glycerole with decreasing urea concentrations.” left out, “Generally, expressions were carried out in E. coli Top10 using carbenicillin selection for pEVOL plasmids and tetracyclin selection for pREP plasmids. Wild type thioredoxin and TRX-R74→6 were expressed in E. coli BL21 (DE3) gold cells. Expressed C-terminal fragment of PylRS_AF (aa 188-454) was stored in 10 mM HEPES-Na+, pH = 7.5, 5 mM MgCl2, 300 mM NaCl at -80 °C before use.” left out
Next, the tRNA^Pyl/PylRS pair of Methanosarcina mazei was analyzed for its capability to mediate the selective incorporation of ncAA 3 into proteins in E. coli in response to the amber codon, TAG. […] However, expression of full-length GFP was only detected for ncAA 2 by cellular fluorescence. […]

PylRS_GF = target: T3, PylRS_GF (Methanosarcina mazei, UniProt Q8PWY1, Y306G/Y384F); assay: PylRS_GF-mediated amber suppression in GFP-Y39TAG (GFP expression in E. coli); type: cell-based; conditions: pREP-PylRS_GF (Y306G), pBAD_GFP-Y39TAG
T3 construct: expressed in transfected cells
T3 sequence (Q8PWY1 whole entry Y306G/Y384F): as the sequence (Q8PWY1 whole entry Y306A/Y384F) above, with A306G counted along it
Excerpt: (§2) Protein Expression and Purification. All proteins were expressed from pBAD vectors and purified using a C-terminal His6 tag. For expression of proteins containing ncAA, E. coli cells were co-transformed with pBAD plasmid containing the target gene with amber codon (pBAD_GFP-39TAG, pBAD_TRX-R74-His6_TAG, pBAD_CmodC or pBAD_TAT, all conferring ampicillin resistance) and a plasmid coding for the respective PylRS mutant and tRNA^Pyl (pEVOL_PylRS_AF, pREP_PylRS_wt, _GF, _AF and PylRS_AF single or double alanine mutants). A single clone was picked and grown in Luria Broth (LB) media supplemented with suited antibiotics at 37 °C and 200 rpm shaking. 0.1 ml of this culture was used to inoculate 5 ml LB supplemented with the same antibiotics and different concentrations of the ncAA. […] Purity of the obtained proteins was analyzed by SDS PAGE and staining with Gelcode blue (Thermo Scientific) and quantified using a BCA assay (Pierce, Thermo Scientific). For GFP yield determination based on whole cell fluorescence, cell pellets from 3 ml expressions were washed twice with 3 ml 4x PBS (by centrifugation for 10 min at 3320 x g at room temperature and resuspension) and fluorescence was determined using a Tecan M200 plate reader using and excitation wavelength of 475 nm and an emission wavelength of 510 nm. Fluorescence values were corrected for cell densities based on OD600 - measurements. […]

PylRS_AF_L407A = target: T4, PylRS_AF_L407A (Methanosarcina mazei, UniProt Q8PWY1, L407A/Y306A/Y384F); assay: PylRS_AF L407A-mediated amber suppression in GFP-Y39TAG (cellular GFP expression in E. coli); type: cell-based; conditions: pREP_PylRS_AF_L407A, pBAD_GFP-39TAG
T4 construct: expressed in transfected cells
T4 sequence (Q8PWY1 whole entry Y306A/Y384F/L407A): as the sequence (Q8PWY1 whole entry Y306A/Y384F) above, with L407A counted along it
Excerpt: as §2

PylRS_AF_D408A = target: T5, PylRS_AF_D408A (Methanosarcina mazei, UniProt Q8PWY1, D408A/Y306A/Y384F); assay: PylRS_AF D408A-mediated amber suppression in GFP-Y39TAG (cellular GFP expression in E. coli); type: cell-based; conditions: pREP_PylRS_AF_D408A, pBAD_GFP-39TAG
T5 construct: expressed in transfected cells
T5 sequence (Q8PWY1 whole entry Y306A/Y384F/D408A): as the sequence (Q8PWY1 whole entry Y306A/Y384F) above, with D408A counted along it
Excerpt: as §2

Solubility of the ncAA = type: physicochemical; conditions: limited solubility
[1] = pBAD_GFP-39TAG, 1 mM ncAA, non-optimized conditions

(S)-2-amino-6-(((benzo[h]quinolin-2-ylmethoxy)carbonyl)amino) hexanoic acid [ncAA 8]
efficiency and accuracy of incorporation into peptides (PylRS_AF): best results

CC(C)(C)OC(=O)NCCCC[C@H](N)C(=O)O [ncAA 2, Nε-(tert-butyloxycarbonyl)-L-lysine, reference compound]
GFP expression, SDS PAGE of Ni-NTA-purified GFP (PylRS_AF): significant expression | expression of full-length GFP by cellular fluorescence (PylRS_wt): detected | GFP expression, SDS PAGE of Ni-NTA-purified GFP (PylRS_GF): significant expression | cellular GFP expression (PylRS_AF_L407A): significant levels | cellular GFP expression (PylRS_AF_D408A): significant levels

N[C@@H](CCCCNC(=O)c1cc2ccccc2cn1)C(=O)O [ncAA 6, Nε-(isoquinoline-3-carbonyl)-L-lysine]
yield of purified GFP-Y39→ncAA (PylRS_AF; [1]): 1.4 mg/L | efficiency and accuracy of incorporation into peptides (PylRS_AF): best results

N[C@@H](CCCCNC(=O)c1cnc2ccccc2n1)C(=O)O [ncAA 3, Nε-(quinoxaline-2-carbonyl)-L-lysine]
yield of purified GFP-Y39→ncAA (PylRS_AF; [1]): 1.4 mg/L | expression of full-length GFP by cellular fluorescence (PylRS_wt): failure of amber suppression | GFP expression, SDS PAGE of Ni-NTA-purified GFP (PylRS_wt): not recognized

N[C@@H](CCCCNC(=O)c1nc2ccccc2nc1O)C(=O)O [Nε-(2-hydroxyquinoxaline-3-carbonyl)-L-lysine]
expression of full-length GFP by cellular fluorescence (PylRS_AF; pBAD_GFP-39TAG): no significant fluorescence increase compared to background

N[C@@H](CCCCNC(=O)c1ccc2ccccc2c1)C(=O)O [ncAA 7, Nε-(naphtalene-2-carbonyl)-L-lysine]
expression of full-length GFP by cellular fluorescence (PylRS_AF; pBAD_GFP-39TAG): no expression | solubility (Solubility of the ncAA): ~100 µM (≈ 30 µg/mL)

N[C@@H](CCCCNC(=O)c1ccc2ccccc2n1)C(=O)O [ncAA 5, Nε-(quinoline-2-carbonyl)-L-lysine]
yield of purified GFP-Y39→ncAA (PylRS_AF; standard expression conditions): > 11 mg/L | yield of purified GFP-Y39→ncAA (PylRS_AF; [1]): 4.5 mg/L | GFP expression, SDS PAGE of Ni-NTA-purified GFP (PylRS_AF): significant expression | GFP expression, SDS PAGE of Ni-NTA-purified GFP (PylRS_wt): not recognized | GFP expression, SDS PAGE of Ni-NTA-purified GFP (PylRS_GF): significant expression | cellular GFP expression (PylRS_AF_L407A): significant levels | cellular GFP expression (PylRS_AF_D408A): significant levels
